The record followed here is patent US20250154180A1, “CRK-LIKE (CRKL) ADAPTOR PROTEIN INHIBITORS AND METHODS OF MAKING AND USING THE SAME” (Rutgers, The State University of New Jersey, priority 2022, published 2025).

The test system of assay [1] is pCrkL (T207) in Sk-Hep1 cells. Briefly: Flow cytometry of H2O2-induced pCrkL, Sk-Hep1. As to conditions: 50 uM H2O2 1 hour, then 10 uM compound 24 hours. In kind it is cell-based. On the procedure: In this example, Sk-Hep1 cells were pretreated with 50 uM H2O2 for 1 hour to induce activation of pCrkL and were then incubated with 10 uM NC5 or Compound III for 24 hours. pCrkL (T207) expression was determined by flow cytometry.
For orientation: In flow cytometry, cells or beads pass a laser one at a time.

For assay [2], the system named is IL-2 production from human PBMCs. As to the kind of experiment: IL-2 ELISA, PBMCs. In kind it is cell-based. On the procedure:
IL-2 ELISA—IL-2 in vitro enzyme-linked immunosorbent assay (ELISA) was used to measure human IL-2 productions. This assay was conducted per the user manual from the kit. In brief, human PBMCs were cultured in R10 medium with 0.5 μg/ml PHA. Then, 100 μl of the standard and sample was added to each well and incubated at 4° C. overnight. A prepared biotin antibody (100 μl) was added to each well and incubated for 1 hour at room temperature. Then, 100 μl prepared streptavidin solution was added and incubated for 45 minutes at room temperature. TMB one-step substrate reagent (100 μl) was then added to each well and incubated for 30 minutes at room temperature. Stop solution (50 μl) was then added to each well, and the results were quantified at 450 nm by Infinite M1000 Pro Plate Reader (Tecan, Switzerland) immediately.
Previous studies have shown that phosphorylated CrkL inhibits immune cell functions. It was then evaluated whether a pCrkL inhibitor could restore immune cell functions. To test this, the production of IL-2 from human PBMCs treated with different concentrations of Pomiferin was quantitated. Phytohemagglutinin (PHA) was used to stimulate the secretion of IL-2 as a positive control group. […] Similar results were obtained from the third donor (FIG. 5B, lower panel).
(ELISA stands for enzyme-linked immunosorbent assay.)

Assay [3] relates to CrkL phosphorylation by Ab1. As to the kind of experiment: in vitro kinase assay (CrkL phosphorylation by Ab1, western blot). In kind it is biochemical. As to conditions: 40 μM candidate drug; compared to Gleevec positive control. On the procedure: The expression of both CrkL and phosphor-CrkL in the negative control was arbitrarily set as “1”, and other treatments were relatively compared with the negative control. The pCrkL and CrkL were set as the phosphorylation ratio, while the kinase inhibition efficiency was set as (1−pCrkL/CrkL)×100%.
in vitro Kinase Assay—An in vitro kinase assay was conducted to detect CrkL phosphorylation by Ab1 and to determine whether candidate drugs identified in the AlphaScreen assays could inhibit phosphorylation. […] The pTyr207 antibody detected the level of phosphorylated CrkL. […]
To further verify the pCrkL inhibitor, a kinase assay was designed to evaluate the specificity of positive hits. […] The decreased amount of pCrkL can be detected and quantified by this kinase assay. […]
In total, ten candidate drugs (five that bind to Ab1 and five that bind to CrkL) were verified by the in vitro kinase inhibition assay followed by thermal shift analysis. […] For phosphorylated CrkL detection, only the phosphorylation of Tyr207 was specifically detected by the anti-CrkL phosphorylation antibodies (FIG. 3B). […]
(In general: Immunoblotting shows a protein as a band on a membrane.)

The next assay concerns MDA-MB-231 cells. Briefly: MTT proliferation assay, MDA-MB-231. In kind it is cell-based. On the procedure: MTT assay—The MTT assay was used to detect cell proliferation. Briefly, cells were plated in a 96-well plate at a density of 50,000 cells/well in 200 μl of culture medium with candidate drugs to be tested (DMSO as a negative control). The treated cells were incubated for four hours a 37° C. with a 5% CO2 incubator to allow dark crystals to form at the bottom of the wells. After culturing for 48 hours, […] of MTT reagent was added to each well and mixed gently for one minute. After aspirating the culture medium from each well, 100 μl of crystal dissolving solution was added to each well and incubated for 10 minutes at RT. The signal was quantified by measuring the absorbance in each sample at 570 nm using a microplate reader.
Compound II is referred to as “NC5-SO2F” in FIGS. 7A-7C.
Cell proliferation was first determined by MTT assay as confirmation. […] CrkL is known to mediate the activation of both Raf/ERK and PI3K pathways. So, proteins that relate to these two pathways were utilized.

The test system of assay [4] is PBNK killing in BXPC3 cells. As to the kind of experiment: Cr51 release assay, PBNK killing of BXPC3. Format: cell-based. The following applies: 1 uM overnight. On the procedure: In this example, activity of NC5 was evaluated for PBNK and CD147-CAR-NK killing in BXPC3 cells. PBNK or CD147-CAR-NK cells were incubated with 1 uM NC5 overnight, then cells were harvested for Cr51 release assay to check cell cytotoxicity. […] The star symbol indicates the significance of vehicle vs. NC5 of the indicated E:T ratios. *p<0.05, **p<0.01, n=3.

For the molecule `CC(C)=CCc1c2c(c3occ(-c4ccc(O)c(O)c4)c(=O)c3c1O)C=CC(C)(C)O2` [Pomiferin, 3′,4′,5-Trihydroxy-6″,6″-dimethyl-6-(3-methylbut-2-en-1-yl)-6″H-pyrano[2″,3″:7,8]isoflavone], the “H2O2 induced pCrkL protein levels” value in assay [1] was “inhibited H2O2 induced pCrkL protein levels”. The IL2 secretion result in assay [2] (PBMCs from three healthy donors, treated overnight) is reported as “did not inhibit IL2 secretion”. In addition, the IL-2 production result in assay [2] (first donor, compared to DMSO) is listed as “decreased IL-2 production”. Further, the “kinase inhibition effect (CrkL phosphorylation)” value in assay [3] is on record as “comparable results similar to the kinase inhibition effect seen with Gleevec”. For the same molecule, the “cell proliferation (MTT)” value in the assay with MDA-MB-231 cells (1 uM, 5 uM and 10 uM, 24 hours) is on record as “significantly inhibited cell proliferation”; in the assay on MDA-MB-231 cells (2.5 μM, 48 hours, vs DMSO), “blocked cell proliferation”. Besides, in assay [4], the “PBNK killing (Cr51 release)” value was “increased”.
